Source: patent US9469665B2, “Compound having lysophosphatidylserine receptor function modulation activity” (THE UNIVERSITY OF TOKYO, priority 2013, dated 2016)

Assays:
Type in all cases: cell-based
[1] = target: T1, mouse GPR34 (Mus musculus, UniProt Q9R1K6); experiment: TGFα shedding assay, agonistic activity on GPR34; parameters: key to GPR34/LPS2 agonistic activity, TGFα shedding assay: an activity that is 100 folds that of control compound 1 as +++++; an activity that is 10 folds that of control compound 1 as ++++; the activity of the control compound 1 (LPS18:1) as +++; an activity that is 1/10 as ++; an activity that is 1/100 as +; an activity below that as −; conditions: for GPR34/LPS2 agonistic activity, TGFα shedding assay: HEK293 cells transfected with mouse GPR34 and AP labeled TGFα, activity relative to control compound 1 (LPS18:1) = +++
T1 construct: expressed in transfected cells; host or cells: HEK293
Protocol: (§1) [Test Example 1]Assay of Agonistic Activity by TGFα Shedding Assay
(§2) HEK293 cells were suspended in the Dulbecco's modified Eagle's medium (DMEM) containing 10% fetal bovine serum (FCS) to exist in an amount of 2.0×10^5 cells/mL, and they were seeded in 60 mm dishes at 4 mL per dish. Transfection of different expression vectors was performed using LipofectAMINE 2000 (Invitrogen) after 24 hours of culture under the presence of 5% CO2. For each 60 mm dish, 1 μg of AP labeled TGFα plasmid vectors were used, and 1 μg of pCAGGS plasmid vectors of mouse GPR34, P2Y10 or GPR174 were used. The plasmid vectors were prepared by methods disclosed in Patent Documents 2 and 5. Note that the AP labeled TGFα is a protein comprising a membrane-bound pro-TGFα whose N terminal end is fused with human placental alkaline phosphatase, and the plasmid vector of the AP labeled TGFα may be produced based on the teaching of Tokumaru et al., J Cell Biol 151, 209-220 (2000). After 24 hours of transfection, the cells were peeled off using trypsin/EDTA, and they were re-suspended in a culture medium to form an amount of 2.0×10^4 cells/well to be seeded to a 96-well plate. Hanks' Balanced Salt Solution (HBSS, containing 5 mM HEPES) was used for the re-suspended solution when stimulating with the compound. After it was left still for 30 min., subject compounds of various concentrations were added and the solutions were left still for another 1 hour under the presence of 5% CO2. The 96-well plate was subjected to centrifugation (190×g, 3 min.), then 80 μl of supernatant was transferred to a different 96-well plate. A reaction buffer (40 mM Tris-HCl (pH 9.5)) containing 10 mM p-nitrophenyl phosphate (p-NPP) was added in an amount of 80 μL to the supernatant and cells. The OD405 was measured with a micro plate reader (background), then after heating at 37° C. for an hour, OD405 was re-measured. The AP activity for each well was obtained by subtracting the background from the second absorbance and plugging the difference into the following formula.
(§3) In addition, the value obtained by subtracting the AP activity (%) of the non-stimulated group was used in the vertical axis to create a graph. The graphs of the test results for Example 3 (lysoPS sn-1-deoxy sn3 C3-ph-o-OBn-m-Oph) and Example 31 (lysoPS sn-1-OMe sn3 C3-ph-o-OBn-m-Oph) are shown in FIG. 1.
(§4) The obtained activity is shown by plotting the compound concentration and AP activity (%), then representing the activity of the control compound 1 (LPS18:1) as +++, an activity that is 10 folds that of control compound 1 as ++++, an activity that is 100 folds that of control compound 1 as +++++, an activity that is 1/10 as ++, and an activity that is 1/100 as +, and an activity below that as −.

[2] = target: T2, mouse P2Y10 (Mus musculus, UniProt Q8BFU7); experiment: TGFα shedding assay, agonistic activity on P2Y10; parameters: key: an activity that is 100 folds that of control compound 1 as +++++; an activity that is 10 folds that of control compound 1 as ++++; the activity of the control compound 1 (LPS18:1) as +++; an activity that is 1/10 as ++; an activity that is 1/100 as +; an activity below that as −; conditions: HEK293 cells transfected with mouse P2Y10 and AP labeled TGFα; activity relative to control compound 1 (LPS18:1) = +++
T2 construct: expressed in transfected cells; host or cells: HEK293
Protocol: as §1, §2, §3, §4

[3] = target: T3, mouse GPR174 (Mus musculus, UniProt Q3U507); experiment: TGFα shedding assay, agonistic activity on GPR174; parameters: key: an activity that is 100 folds that of control compound 1 as +++++; an activity that is 10 folds that of control compound 1 as ++++; the activity of the control compound 1 (LPS18:1) as +++; an activity that is 1/10 as ++; an activity that is 1/100 as +; an activity below that as −; conditions: HEK293 cells transfected with mouse GPR174 and AP labeled TGFα; activity relative to control compound 1 (LPS18:1) = +++
T3 construct: expressed in transfected cells; host or cells: HEK293
Protocol: as §1, §2, §3, §4

T1 sequence (Q9R1K6 whole entry): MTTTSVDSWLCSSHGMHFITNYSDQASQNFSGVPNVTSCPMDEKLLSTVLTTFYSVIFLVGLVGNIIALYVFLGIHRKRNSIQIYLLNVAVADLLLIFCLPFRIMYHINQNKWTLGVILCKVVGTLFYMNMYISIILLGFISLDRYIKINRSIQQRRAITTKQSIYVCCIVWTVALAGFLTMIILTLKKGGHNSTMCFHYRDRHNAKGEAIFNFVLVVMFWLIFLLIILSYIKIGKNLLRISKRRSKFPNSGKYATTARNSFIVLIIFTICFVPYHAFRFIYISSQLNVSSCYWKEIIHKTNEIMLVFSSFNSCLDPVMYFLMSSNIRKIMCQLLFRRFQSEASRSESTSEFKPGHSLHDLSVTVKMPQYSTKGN
T2 sequence (Q8BFU7 whole entry): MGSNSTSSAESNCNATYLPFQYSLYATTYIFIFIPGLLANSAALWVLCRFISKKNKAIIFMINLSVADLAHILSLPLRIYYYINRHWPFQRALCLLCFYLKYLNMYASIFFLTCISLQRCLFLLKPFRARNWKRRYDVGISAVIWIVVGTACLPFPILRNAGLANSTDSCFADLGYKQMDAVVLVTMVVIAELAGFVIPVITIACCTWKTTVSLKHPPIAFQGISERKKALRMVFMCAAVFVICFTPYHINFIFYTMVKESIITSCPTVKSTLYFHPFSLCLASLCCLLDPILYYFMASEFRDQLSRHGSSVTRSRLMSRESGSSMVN
T3 sequence (Q3U507 whole entry): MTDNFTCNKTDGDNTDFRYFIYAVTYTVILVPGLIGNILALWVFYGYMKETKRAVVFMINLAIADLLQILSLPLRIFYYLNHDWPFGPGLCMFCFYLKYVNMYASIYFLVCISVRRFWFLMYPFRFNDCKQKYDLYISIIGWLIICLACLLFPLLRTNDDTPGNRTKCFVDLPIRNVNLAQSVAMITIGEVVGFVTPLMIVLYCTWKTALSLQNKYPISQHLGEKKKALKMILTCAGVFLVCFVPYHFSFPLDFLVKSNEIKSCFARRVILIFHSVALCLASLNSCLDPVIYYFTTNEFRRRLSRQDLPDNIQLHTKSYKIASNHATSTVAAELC

CCCCCCCC/C=C\CCCCCCCC(=O)OC[C@@H](C)OP(=O)(O)OC[C@H](N)C(=O)O [Example 1, (9Z)-Octadeca-9-enoic acid (2R)-2-[((2S)-2-amino-2-carboxy-ethoxy)-hydroxy-phosphoryloxy]-propyl ester]
GPR34/LPS2 agonistic activity, TGFα shedding assay [1]: ++++ | P2Y10/LPS2 agonistic activity, TGFα shedding assay [2]: ++ | GPR174/LPS3 agonistic activity, TGFα shedding assay [3]: +~++

CCCCCCCC/C=C\CCCCCCCC(=O)OC[C@H](C)OP(=O)(O)OC[C@H](N)C(=O)O [Example 2, (9Z)-Octadeca-9-enoic acid (2S)-2-[((2S)-2-amino-2-carboxy-ethoxy)-hydroxy-phosphoryloxy]-propyl ester]
GPR34/LPS2 agonistic activity, TGFα shedding assay [1]: +++ | P2Y10/LPS2 agonistic activity, TGFα shedding assay [2]: ++~+++ | GPR174/LPS3 agonistic activity, TGFα shedding assay [3]: +~++

C[C@H](COC(=O)CCc1ccccc1OCc1cccc(Oc2ccccc2)c1)OP(=O)(O)OC[C@H](N)C(=O)O [Example 3, (2S)-2-amino-3-[hydroxyl-((1R)-1-methyl-2-{3-[2-(3-phenoxy-benzyloxy)-phenyl]-propionyloxy}-ethoxy)-phosphoryloxy]-propionic acid]
GPR34/LPS2 agonistic activity, TGFα shedding assay [1]: +++++ | receptor selectivity of agonist activity among GPR34, P2Y10, GPR174 (graphs of FIG. 1) ([1]; TGFα shedding assay, HEK293 cells, AP activity (%) vs concentration): agonists having selectivity against GPR34 | P2Y10/LPS2 agonistic activity, TGFα shedding assay [2]: ++ | GPR174/LPS3 agonistic activity, TGFα shedding assay [3]: −

CCCCCCCC/C=C\CCCCCCCC(=O)OC[C@@H](COC)OP(=O)(O)OC[C@H](N)C(=O)O [Example 4, (9Z)-Octadeca-9-enoic acid (2R)-2-[((2S)-2-amino-2-carboxy-ethoxy)-hydroxy-phosphoryloxy]-3-methoxy-propyl ester]
GPR34/LPS2 agonistic activity, TGFα shedding assay [1]: ++++ | P2Y10/LPS2 agonistic activity, TGFα shedding assay [2]: + | GPR174/LPS3 agonistic activity, TGFα shedding assay [3]: −

CCCCCCCC/C=C\CCCCCCCC(=O)OC[C@H](COC)OP(=O)(O)OC[C@H](N)C(=O)O [Example 5, (9Z)-Octadeca-9-enoic acid (2S)-2-[((2S)-2-amino-2-carboxy-ethoxy)-hydroxy-phosphoryloxy]-3-methoxy-propyl ester]
GPR34/LPS2 agonistic activity, TGFα shedding assay [1]: ++ | P2Y10/LPS2 agonistic activity, TGFα shedding assay [2]: + | GPR174/LPS3 agonistic activity, TGFα shedding assay [3]: −

CCCCCCCC/C=C\CCCCCCCC(=O)OC[C@@H](COCC)OP(=O)(O)OC[C@H](N)C(=O)O [Example 6, (9Z)-Octadeca-9-enoic acid (2R)-2-[((2S)-2-amino-2-carboxy-ethoxy)-hydroxy-phosphoryloxy]-3-ethoxypropyl ester]
GPR34/LPS2 agonistic activity, TGFα shedding assay [1]: +++++ | P2Y10/LPS2 agonistic activity, TGFα shedding assay [2]: + | GPR174/LPS3 agonistic activity, TGFα shedding assay [3]: −

CCCCCCCC/C=C\CCCCCCCC(=O)OC[C@@H](COCc1ccccc1)OP(=O)(O)OC[C@H](N)C(=O)O [Example 7, (9Z)-Octadeca-9-enoic acid (2R)-2-[((2S)-2-amino-2-carboxy-ethoxy)-hydroxy-phosphoryloxy]-3-benzyloxy-propyl ester]
GPR34/LPS2 agonistic activity, TGFα shedding assay [1]: ++ | P2Y10/LPS2 agonistic activity, TGFα shedding assay [2]: − | GPR174/LPS3 agonistic activity, TGFα shedding assay [3]: −

CCCCCCCCCCCOc1ccccc1CCC(=O)O[C@@H]1CCOC[C@H]1OP(=O)(O)OC[C@H](N)C(=O)O [Example 8, (2S)-2-amino-3-((3R,4R)-hydroxy-{4-[3-(2-undecyloxy-phenyl)-propionyloxy]-tetrahydro-pyran-3-yloxy}-phosphoryloxy)-propionic acid]
GPR34/LPS2 agonistic activity, TGFα shedding assay [1]: +++~++++ | P2Y10/LPS2 agonistic activity, TGFα shedding assay [2]: +++ | GPR174/LPS3 agonistic activity, TGFα shedding assay [3]: −

CCCCCCCCCCCOc1ccccc1CCC(=O)O[C@@H]1COCC[C@H]1OP(=O)(O)OC[C@H](N)C(=O)O [Example 9, (2S)-2-amino-3-(hydroxyl-{(3R,4R)-3-[3-(2-undecyloxy-phenyl)-propionyloxy]-tetrahydropyran-4-yloxy}-phosphoryloxy)-propionic acid]
GPR34/LPS2 agonistic activity, TGFα shedding assay [1]: ++++~+++++ | P2Y10/LPS2 agonistic activity, TGFα shedding assay [2]: ++~+++ | GPR174/LPS3 agonistic activity, TGFα shedding assay [3]: −

CCCCCCCCCCCOc1ccccc1CCC(=O)O[C@H]1CCOC[C@@H]1OP(=O)(O)OC[C@H](N)C(=O)O [Example 10, (2S)-2-amino-3-(hydroxy-{(3S,4S)-4-[3-(2-undecyloxy-phenyl)-propionyloxy]-tetrahydro-pyran-3-yloxy}-phosphoryloxy)-propionic acid]
GPR34/LPS2 agonistic activity, TGFα shedding assay [1]: − | P2Y10/LPS2 agonistic activity, TGFα shedding assay [2]: ++~+++ | GPR174/LPS3 agonistic activity, TGFα shedding assay [3]: −

CCCCCCCCCCCOc1ccccc1CCC(=O)O[C@H]1COCC[C@@H]1OP(=O)(O)OC[C@H](N)C(=O)O [Example 11, (2S)-2-amino-3-(hydroxy-{(3S,4S)-3-[3-(2-undecyloxy-phenyl)-propionyloxy]-tetrahydro-pyran-4-yloxy}-phosphoryloxy)-propionic acid]
GPR34/LPS2 agonistic activity, TGFα shedding assay [1]: − | P2Y10/LPS2 agonistic activity, TGFα shedding assay [2]: ++ | GPR174/LPS3 agonistic activity, TGFα shedding assay [3]: −

CCCCCCCCCCCOc1ccc(C(C)(C)C)cc1CCC(=O)O[C@H]1COCC[C@@H]1OP(=O)(O)OC[C@H](N)C(=O)O [Example 12, (2S)-2-amino-3-({(3S,4S)-3-[3-(5-tert-butyl-2-undecyloxy-phenyl)-propionyloxy]-tetrahydro-pyran-4-yloxy}-hydroxy-phosphoryloxy)-propionic acid]
GPR34/LPS2 agonistic activity, TGFα shedding assay [1]: − | P2Y10/LPS2 agonistic activity, TGFα shedding assay [2]: + | GPR174/LPS3 agonistic activity, TGFα shedding assay [3]: −

N[C@@H](COP(=O)(O)OC[C@H]1OCCC[C@@H]1OC(=O)CCc1ccccc1OCc1cccc(Oc2ccccc2)c1)C(=O)O [Example 13, (2S)-2-amino-3-[hydroxyl-((2R,3S)-3-{3-[2-(3-phenoxy-benzyloxy)-phenyl]-propionyloxy}-tetrahydro-pyran-2-ylmethoxy)-phosphoryloxy]-propionic acid]
GPR34/LPS2 agonistic activity, TGFα shedding assay [1]: ++ | P2Y10/LPS2 agonistic activity, TGFα shedding assay [2]: −~+ | GPR174/LPS3 agonistic activity, TGFα shedding assay [3]: −

CCCCCCCCCCCOc1ccccc1CCC(=O)O[C@H]1CCCO[C@@H]1COP(=O)(O)OC[C@H](N)C(=O)O [Example 14, (2S)-2-amino-3-(hydroxy-{(2R,3S)-3-[3-(2-undecyloxy-phenyl)-propionyloxy]-tetrahydro-pyran-2-ylmethoxy}-phosphoryloxy)-propionic acid]
GPR34/LPS2 agonistic activity, TGFα shedding assay [1]: − | P2Y10/LPS2 agonistic activity, TGFα shedding assay [2]: + | GPR174/LPS3 agonistic activity, TGFα shedding assay [3]: −
